Among the data in patent publication US7459450B2, “Neuropeptide receptor modulators” (Schering Corporation, priority 2004, dated 2008) are Ki values, retold here.

The target in the first assay is T1, Human NPY Y1 receptors (Homo sapiens, UniProt P25929).
T1 construct: expressed in transfected cells; host or cells: CHO cells (membrane protein)
T1 sequence (P25929 1-384): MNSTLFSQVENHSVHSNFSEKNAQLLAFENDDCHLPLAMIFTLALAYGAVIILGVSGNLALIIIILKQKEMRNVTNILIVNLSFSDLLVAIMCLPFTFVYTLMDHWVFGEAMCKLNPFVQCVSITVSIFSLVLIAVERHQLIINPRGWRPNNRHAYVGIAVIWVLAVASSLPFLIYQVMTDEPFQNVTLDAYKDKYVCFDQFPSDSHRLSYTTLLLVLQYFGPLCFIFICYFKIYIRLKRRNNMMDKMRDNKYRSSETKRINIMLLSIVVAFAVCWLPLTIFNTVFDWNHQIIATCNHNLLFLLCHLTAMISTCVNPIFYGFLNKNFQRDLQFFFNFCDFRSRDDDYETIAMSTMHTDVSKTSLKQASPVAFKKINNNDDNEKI
As to the kind of experiment: NPY Receptor Binding Assay.
Conditions: not given
As to the method: NPY Receptor Binding Assay
Human NPY Y1 receptors were expressed in CHO cells. Binding assays were performed in 50 mM HEPES, pH 7.2, 2.5 mM CaCl2, 1 mM MgCl2 and 0.1% BSA containing 5-10 μg of membrane protein and 0.1 nM […] in a total volume of 200 μl. Non-specific binding was determined in the presence of 1 μM NPY. The reaction mixtures were incubated for 90 minutes at room temperature then filtered through Millipore MAFC glass fiber filter plates which had been pre-soaked in 0.5% polyethleneimine. The filters were washed with phosphate-buffered saline, and radioactivity was measured in a Packard TopCount scintillation counter.
`O=C1S/C(=N\c2ccc(CCNc3nc4ccccc4s3)cc2)N[C@H]1Cc1ccccc1` [Example 394]: the Ki was greater than 10 µM.
Take `COc1ccc2nc(NCCc3ccc(/N=C4/N[C@@H](CC(C)C)C(=O)S4)cc3)sc2c1` [Example 345]: the Ki is greater than 10 µM.
Regarding `COc1cccc2sc(NCCc3ccc(/N=C4/N[C@@H](C(C)C)C(=O)S4)cc3)nc12` [Example 365], the Ki was greater than 10 µM.
For `CC(C)C[C@@H]1N/C(=N/c2ccc(CCNc3nc4ccc([N+](=O)[O-])cc4s3)cc2)SC1=O` [Example 340], the Ki is greater than 10 µM.
The molecule `O=C1S/C(=N/c2ccccc2CCNc2nc3ccccc3s2)N[C@H]1Cc1ccccc1` [Example 410] came in with a Ki greater than 10 µM.
For the molecule `O=C1SC(=Nc2ccc(CCNc3nc4ccc(Cl)cc4s3)cc2)N2CCCC12` (centres unmarked) [Example 385], the Ki was greater than 10 µM.
The same measure, in the same setting: the result for `Cc1ccc2nc(NCCc3ccc(/N=C4/N[C@@H](CC(=O)O)C(=O)S4)cc3)sc2c1` [Example 380] reads greater than 10 µM; that for `C[C@@H]1N/C(=N/c2ccc(CCNc3nc4ccc(Cl)cc4s3)cc2)SC1=O` [Example 386], greater than 10 µM; that for `CC(C)C[C@@H]1N/C(=N/c2ccc(CCNc3nc4cc(Cl)c(Cl)cc4s3)cc2)SC1=O` [Example 362], greater than 10 µM.
In the case of `Cc1ccc2nc(NCCc3ccc(/N=C4/N[C@@H](C(C)C)C(=O)S4)cc3)sc2c1` [Example 378], the Ki is greater than 10 µM.
Molecule `CC(C)[C@@H]1N/C(=N/c2ccc(CCNc3nc4ccc(F)cc4s3)cc2)SC1=O` [Example 374] displayed an inhibition constant (Ki) greater than 10 µM.
Molecule `CSCC[C@@H]1N/C(=N/c2ccc(CCNc3nc4ccc([N+](=O)[O-])cc4s3)cc2)SC1=O` [Example 414] displayed a Ki greater than 10 µM.
Still for that read-out and setting: the result for `Cc1cccc2sc(NCCc3ccc(/N=C4/N[C@@H](Cc5ccccc5)C(=O)S4)cc3)nc12` [Example 369] reads greater than 10 µM; that for `COc1cccc2sc(NCCc3ccc(/N=C4/N[C@@H](CC(=O)O)C(=O)S4)cc3)nc12` [Example 367], greater than 10 µM.
The molecule `CS(=O)(=O)c1ccc2nc(NCCc3ccc(/N=C4\SC(=O)[C@@H]5CCCN45)cc3)sc2c1` [Example 352] showed a Ki greater than 10 µM.
On to `CC(C)[C@@H]1N/C(=N/c2ccc(CCNc3nc4ccc([N+](=O)[O-])cc4s3)cc2)SC1=O` [Example 356], for which the inhibition constant (Ki) was greater than 10 µM.

Still in this assay, the particulars now being: Procedure A compounds, rated A/B/C.
Molecule `COc1ccc2nc(NCCc3ccc(NC4=NCCS4)cc3)sc2c1` [Example 16] displayed a Ki of 1 to 10 µM.
On the same count and under the same terms, in the case of `Cc1cccc2sc(NCCc3ccc(NC4=NCCS4)cc3)nc12` [Example 23] it was 1 to 10 µM; in that of `c1ccc(NC2=NCCS2)c(CCNc2nc3ccccc3s2)c1` [Example 24], greater than 10 µM.

Staying with this assay, now noted: Procedure B compounds, rated A/B/C.
For `CCOC(=O)N1C(Nc2ccc(CCNc3nc4ccccc4s3)cc2)=NC(C)C1c1ccccc1` (centres unmarked) [Example 28], the inhibition constant Ki was greater than 10 µM.

The same assay, now with this note: Procedure C compounds, rated A/B/C.
Turning to `CC[C@H](C)[C@@H]1N=C(Nc2ccc(CCNc3nc4ccccc4s3)cc2)N(C(=O)c2ccccc2)C1=O` [Example 52], the Ki was greater than 10 µM.
As for `CCOC(=O)N1C(=O)[C@H](CC2CCCCC2)N=C1Nc1ccc(CCNc2nc3ccccc3s2)cc1` [Example 39], the Ki was greater than 10 µM.
On to `O=C(O)CC[C@@H]1N=C(Nc2ccc(CCNc3nc4ccccc4s3)cc2)N(C(=O)c2ccccc2)C1=O` [Example 51], for which the Ki is greater than 10 µM.

Staying with this assay, now noted: Procedure E compounds, rated A/B/C.
Consider `COc1cccc2sc(NCCc3ccc(/N=C4/NCC(C)S4)cc3)nc12` (centres unmarked) [Example 326], for which the Ki was greater than 10 µM.
The same measure, in the same setting: the result for `Clc1cccc(C2CCSC(Nc3ccc(CCNc4nc5ccccc5s4)cc3)=N2)c1` (centres unmarked) [Example 198] reads less than 1 µM; that for `CC1(C)CS/C(=N\c2ccc(CCNc3nc4ccc([N+](=O)[O-])cc4s3)cc2)N1` [Example 76], greater than 10 µM; that for `Cc1ccc2nc(NCCc3ccc(/N=C4\SC5Cc6ccccc6[C@@H]5N4C4CC4)cc3)sc2c1` (some centres unmarked) [Example 224], greater than 10 µM.
With `CC1(C)CS/C(=N\c2ccc(CCNc3nc4ccc(S(C)(=O)=O)cc4s3)cc2)N1` [Example 118], the Ki was 1 to 10 µM.
On the same count and under the same terms, the result for `CCC1CS/C(=N\c2ccc(CCNc3nc4ccc(OC)cc4s3)cc2)N1` (centres unmarked) [Example 84] reads less than 1 µM; that for `Cc1ccc2nc(NCCc3ccc(/N=C4\SC5Cc6ccccc6[C@@H]5N4C)cc3)sc2c1` (some centres unmarked) [Example 222], greater than 10 µM.
In turn, `c1ccc(CN2CCS/C2=N\c2ccc(CCNc3nc4ccccc4s3)cc2)cc1` [Example 74] yielded a Ki greater than 10 µM.
With `CC(C)C[C@@H]1CS/C(=N\c2ccc(CCNc3nc4ccc(S(C)(=O)=O)cc4s3)cc2)N1` [Example 245], the Ki is 1 to 10 µM.
Still for that read-out and setting: the result for `C[C@@H]1N/C(=N/c2ccc(CCNc3nc4ccccc4s3)cc2)SC1c1ccccc1` (some centres unmarked) [Example 191] reads greater than 10 µM; that for `COc1cccc2sc(NCCc3ccc(/N=C4\SCCN4C)cc3)nc12` [Example 230], greater than 10 µM; that for `Clc1ccccc1C1CCSC(Nc2ccc(CCNc3nc4ccccc4s3)cc2)=N1` (centres unmarked) [Example 199], less than 1 µM.
For the molecule `C[C@@H]1N/C(=N\c2cccc(CCNc3nc4ccccc4s3)c2)SC1c1ccccc1` (some centres unmarked) [Example 185], the Ki is less than 1 µM.
For the molecule `c1ccc(CCC2CCSC(Nc3ccc(CCNc4nc5ccccc5s4)cc3)=N2)cc1` (centres unmarked) [Example 197], the Ki was less than 1 µM.
Take `COc1ccc2nc(NCCc3ccc(/N=C4/N[C@H](CC(C)C)CS4)cc3)sc2c1` [Example 82]: the Ki is less than 1 µM.
Regarding `CS(=O)(=O)c1ccc2nc(NCCc3ccc(/N=C4/N[C@H]5c6ccccc6CC5S4)cc3)sc2c1` (some centres unmarked) [Example 332], the Ki was greater than 10 µM.
In turn, `CC(C)C[C@@H]1CS/C(=N\c2ccc(CCNc3nc4ccc(Cl)cc4s3)cc2)N1` [Example 100] returned a Ki of 1 to 10 µM.
In turn, `O=[N+]([O-])c1ccc2nc(NCCc3ccc(/N=C4/NC(c5ccccc5)CCS4)cc3)sc2c1` (centres unmarked) [Example 67] registered a Ki greater than 10 µM.
Molecule `CC1(C)CS/C(=N/c2cccc(CCNc3nc4ccccc4s3)c2)N1` [Example 321] displayed an inhibition constant Ki greater than 10 µM.
`O=[N+]([O-])c1ccc2nc(NCCc3ccc(N=C4NCCCS4)cc3)sc2c1` [Example 62]: the inhibitory constant (Ki) is greater than 10 µM.
As to `Cc1ccc2nc(NCCc3ccc(/N=C4/N[C@@H](C)C(c5ccccc5)S4)cc3)sc2c1` (some centres unmarked) [Example 323], the Ki is greater than 10 µM.
Regarding `COc1cccc2sc(NCCc3ccc(/N=C4/NCCCS4)cc3)nc12` [Example 207], the Ki is greater than 10 µM.
Turning to `COc1ccc2nc(NCCc3ccc(/N=C4/N[C@@H](Cc5ccccc5)CS4)cc3)sc2c1` [Example 81], the Ki is 1 to 10 µM.
As for `c1ccc(C2CN/C(=N\c3cccc(CCNc4nc5ccccc5s4)c3)S2)cc1` (centres unmarked) [Example 186], the Ki is greater than 10 µM.
Molecule `COc1ccc(C2CCSC(Nc3ccc(CCNc4nc5ccccc5s4)cc3)=N2)cc1` (centres unmarked) [Example 333] showed a Ki of less than 1 µM.
Molecule `O=[N+]([O-])c1ccc2nc(NCCc3ccc(/N=C4/N[C@H]5c6ccccc6CC5S4)cc3)sc2c1` (some centres unmarked) [Example 194] displayed a Ki greater than 10 µM.
For `CC1CN/C(=N/c2ccc(CCNc3nc4cc(Cl)c(Cl)cc4s3)cc2)S1` (centres unmarked) [Example 190], the Ki is greater than 10 µM.
Same read-out and setting: the result for `CC1CN/C(=N\c2cccc(CCNc3nc4ccccc4s3)c2)S1` (centres unmarked) [Example 187] reads greater than 10 µM.
Consider `CCCCC1CS/C(=N\c2ccc(CCNc3nc4ccc(S(C)(=O)=O)cc4s3)cc2)N1` (centres unmarked) [Example 111], for which the Ki was 1 to 10 µM.
As for `CC[C@@H]1CS/C(=N\c2ccc(CCNc3nc4ccc(OC)cc4s3)cc2)N1` [Example 219], the Ki was in the range of 1 to 10 µM.
Same read-out and setting: the result for `Cc1cccc2sc(NCCc3ccc(/N=C4/NCC(c5ccccc5)S4)cc3)nc12` (centres unmarked) [Example 188] reads greater than 10 µM; that for `Fc1ccc2nc(NCCc3ccc(/N=C4/N[C@H]5c6ccccc6CC5S4)cc3)sc2c1` (some centres unmarked) [Example 328], less than 1 µM.

The same assay, now with this note: Procedure G compounds, rated A/B/C.
With `CC(=O)c1sc(Nc2ccc(CCNc3nc4ccccc4s3)cc2)nc1C` [Example 429], the Ki is greater than 10 µM.
As to `c1ccc(-c2ccc(-c3csc(Nc4ccc(CCNc5nc6ccccc6s5)cc4)n3)cc2)cc1` [Example 419], the Ki was greater than 10 µM.
Regarding `COc1ccc(-c2csc(Nc3ccc(CCNc4nc5ccccc5s4)cc3)n2)c(OC)c1` [Example 426], the inhibition constant Ki is greater than 10 µM.

The assay is the same for the next values; noted with them: Procedure H compounds, rated A/B/C.
In turn, `CCCCCC1SC(Nc2ccc(CCNc3nc4ccccc4s3)cc2)=NC1=O` (centres unmarked) [Example 447] returned a Ki greater than 10 µM.

The same assay, now with this note: Procedure I compounds, column head blank, rated A/B/C.
Take `c1ccc(C2CCCCC(Nc3ccc(CCNc4nc5ccccc5s4)cc3)=N2)cc1` (centres unmarked) [Example 448]: the Ki was 1 to 10 µM.

Staying with this assay, now noted: Table 1, rated A/B/C.
`CC1CCSC(Nc2ccc(CCNc3nc4ccccc4s3)cc2)=N1` (centres unmarked) [Example 11]: the Ki is less than 1 µM.
Still for that read-out and setting: the result for `c1ccc(CCC2CCSC(Nc3ccc(CCNc4nc5ccccc5s4)cc3)=N2)cc1` (centres unmarked) [Example 13] reads less than 1 µM; that for `Clc1ccc(C2CCSC(Nc3ccc(CCNc4nc5ccccc5s4)cc3)=N2)cc1` (centres unmarked) [Example 2], less than 1 µM; that for `Brc1ccc(C2CCSC(Nc3ccc(CCNc4nc5ccccc5s4)cc3)=N2)cc1` (centres unmarked) [Example 5], less than 1 µM.
In turn, `COc1ccc(C2CCSC(Nc3ccc(CCNc4nc5ccccc5s4)cc3)=N2)cc1` (centres unmarked) [Example 3] returned an inhibition constant Ki of less than 1 µM.
